In patent publication US20240246942A1, “KINASE INHIBITORS FOR THE TREATMENT OF NEURODEGENERATIVE DISEASES” (priority 2020, published 2024):
Like-named read-outs stand apart in the source and are kept apart here.

Experiments:
Experiment in all cases: biochemical
[1] = biological target: T1, panel of 374 wild-type kinases (Homo sapiens, UniProt Q15746); details: read-out: % Enzyme Activity (relative to DMSO controls), MLCK/MYLK
T1 construct: purchased Reaction Biology Corporation

[2] = biological target: T2, panel of 374 wild-type kinases (Homo sapiens, UniProt P43405); details: read-out: % Enzyme Activity (relative to DMSO controls), kinase SYK
T2 construct: purchased Reaction Biology Corporation

[3] = biological target: T3, panel of 374 wild-type kinases (Homo sapiens, UniProt P06493)
T3 construct: purchased Reaction Biology Corporation
T3 sequence (P06493 whole entry): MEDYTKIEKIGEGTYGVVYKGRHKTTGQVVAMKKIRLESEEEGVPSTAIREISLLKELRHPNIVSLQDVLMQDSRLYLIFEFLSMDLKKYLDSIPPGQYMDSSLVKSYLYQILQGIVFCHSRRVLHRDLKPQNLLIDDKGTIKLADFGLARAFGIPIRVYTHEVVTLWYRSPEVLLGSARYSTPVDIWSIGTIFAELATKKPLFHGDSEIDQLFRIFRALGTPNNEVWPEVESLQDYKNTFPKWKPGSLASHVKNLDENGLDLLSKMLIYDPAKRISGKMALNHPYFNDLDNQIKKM

[4] = biological target: T4, panel of 374 wild-type kinases (Homo sapiens, UniProt P41240); details: read-out: % Enzyme Activity (relative to DMSO controls), CSK
T4 construct: purchased Reaction Biology Corporation
T4 sequence (P41240 whole entry): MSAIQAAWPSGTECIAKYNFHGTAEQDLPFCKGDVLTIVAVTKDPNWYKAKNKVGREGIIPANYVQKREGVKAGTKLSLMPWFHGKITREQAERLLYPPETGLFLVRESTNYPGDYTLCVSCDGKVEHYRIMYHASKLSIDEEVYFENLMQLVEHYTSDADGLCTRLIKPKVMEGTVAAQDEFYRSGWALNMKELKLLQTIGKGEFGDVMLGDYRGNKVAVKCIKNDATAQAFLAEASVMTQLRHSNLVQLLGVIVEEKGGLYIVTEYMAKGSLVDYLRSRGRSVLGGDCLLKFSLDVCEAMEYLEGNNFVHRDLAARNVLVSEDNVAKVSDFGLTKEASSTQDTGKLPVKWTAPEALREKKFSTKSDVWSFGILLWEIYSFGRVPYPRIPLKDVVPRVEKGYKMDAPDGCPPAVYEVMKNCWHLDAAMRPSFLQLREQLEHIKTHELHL

[5] = biological target: T5, panel of 374 wild-type kinases (Homo sapiens, UniProt Q14164); details: read-out: % Enzyme Activity (relative to DMSO controls), IKKe/IKBKE
T5 construct: purchased Reaction Biology Corporation
T5 sequence (Q14164 1-716): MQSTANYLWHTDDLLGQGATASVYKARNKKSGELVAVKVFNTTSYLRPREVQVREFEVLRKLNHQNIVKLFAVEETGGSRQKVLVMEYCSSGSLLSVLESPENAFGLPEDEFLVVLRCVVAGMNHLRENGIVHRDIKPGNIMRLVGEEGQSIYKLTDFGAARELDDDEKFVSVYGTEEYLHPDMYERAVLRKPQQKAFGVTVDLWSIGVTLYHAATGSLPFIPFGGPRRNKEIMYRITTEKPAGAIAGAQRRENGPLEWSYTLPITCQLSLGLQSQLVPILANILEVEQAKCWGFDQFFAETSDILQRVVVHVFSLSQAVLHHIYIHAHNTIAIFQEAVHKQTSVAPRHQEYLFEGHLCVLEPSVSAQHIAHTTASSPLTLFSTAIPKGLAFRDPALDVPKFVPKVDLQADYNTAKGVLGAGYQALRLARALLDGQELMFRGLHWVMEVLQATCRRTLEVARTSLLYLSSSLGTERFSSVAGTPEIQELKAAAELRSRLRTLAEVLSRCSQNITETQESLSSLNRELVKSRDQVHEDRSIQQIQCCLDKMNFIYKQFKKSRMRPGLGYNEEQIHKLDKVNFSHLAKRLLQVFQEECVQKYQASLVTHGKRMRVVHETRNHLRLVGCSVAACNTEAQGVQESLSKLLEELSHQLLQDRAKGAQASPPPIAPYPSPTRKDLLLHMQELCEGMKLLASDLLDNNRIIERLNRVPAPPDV

[6] = biological target: T6, panel of 374 wild-type kinases (Homo sapiens, UniProt Q00537); details: read-out: % Enzyme Activity (relative to DMSO controls), CDK17/cyclin Y (PCTK2)
T6 construct: purchased Reaction Biology Corporation
T6 sequence (Q00537 whole entry): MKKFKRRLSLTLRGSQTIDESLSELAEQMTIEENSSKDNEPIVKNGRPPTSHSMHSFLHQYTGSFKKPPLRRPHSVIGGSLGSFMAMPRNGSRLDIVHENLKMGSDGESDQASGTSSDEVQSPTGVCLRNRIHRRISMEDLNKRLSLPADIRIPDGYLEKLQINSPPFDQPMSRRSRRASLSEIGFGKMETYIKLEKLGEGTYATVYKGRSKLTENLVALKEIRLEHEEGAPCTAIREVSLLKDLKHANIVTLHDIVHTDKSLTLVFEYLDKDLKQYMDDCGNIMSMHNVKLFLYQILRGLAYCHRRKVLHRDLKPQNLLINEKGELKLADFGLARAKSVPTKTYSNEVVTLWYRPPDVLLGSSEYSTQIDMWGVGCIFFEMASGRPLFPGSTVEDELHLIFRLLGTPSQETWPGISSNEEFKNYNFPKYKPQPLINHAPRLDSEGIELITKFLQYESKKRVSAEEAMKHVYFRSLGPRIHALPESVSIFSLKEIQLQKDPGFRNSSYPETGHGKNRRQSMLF

[7] = biological target: T7, panel of 374 wild-type kinases (Homo sapiens, UniProt P52333); details: read-out: % Enzyme Activity (relative to DMSO controls), JAK3
T7 construct: purchased Reaction Biology Corporation
T7 sequence (P52333 1-1124): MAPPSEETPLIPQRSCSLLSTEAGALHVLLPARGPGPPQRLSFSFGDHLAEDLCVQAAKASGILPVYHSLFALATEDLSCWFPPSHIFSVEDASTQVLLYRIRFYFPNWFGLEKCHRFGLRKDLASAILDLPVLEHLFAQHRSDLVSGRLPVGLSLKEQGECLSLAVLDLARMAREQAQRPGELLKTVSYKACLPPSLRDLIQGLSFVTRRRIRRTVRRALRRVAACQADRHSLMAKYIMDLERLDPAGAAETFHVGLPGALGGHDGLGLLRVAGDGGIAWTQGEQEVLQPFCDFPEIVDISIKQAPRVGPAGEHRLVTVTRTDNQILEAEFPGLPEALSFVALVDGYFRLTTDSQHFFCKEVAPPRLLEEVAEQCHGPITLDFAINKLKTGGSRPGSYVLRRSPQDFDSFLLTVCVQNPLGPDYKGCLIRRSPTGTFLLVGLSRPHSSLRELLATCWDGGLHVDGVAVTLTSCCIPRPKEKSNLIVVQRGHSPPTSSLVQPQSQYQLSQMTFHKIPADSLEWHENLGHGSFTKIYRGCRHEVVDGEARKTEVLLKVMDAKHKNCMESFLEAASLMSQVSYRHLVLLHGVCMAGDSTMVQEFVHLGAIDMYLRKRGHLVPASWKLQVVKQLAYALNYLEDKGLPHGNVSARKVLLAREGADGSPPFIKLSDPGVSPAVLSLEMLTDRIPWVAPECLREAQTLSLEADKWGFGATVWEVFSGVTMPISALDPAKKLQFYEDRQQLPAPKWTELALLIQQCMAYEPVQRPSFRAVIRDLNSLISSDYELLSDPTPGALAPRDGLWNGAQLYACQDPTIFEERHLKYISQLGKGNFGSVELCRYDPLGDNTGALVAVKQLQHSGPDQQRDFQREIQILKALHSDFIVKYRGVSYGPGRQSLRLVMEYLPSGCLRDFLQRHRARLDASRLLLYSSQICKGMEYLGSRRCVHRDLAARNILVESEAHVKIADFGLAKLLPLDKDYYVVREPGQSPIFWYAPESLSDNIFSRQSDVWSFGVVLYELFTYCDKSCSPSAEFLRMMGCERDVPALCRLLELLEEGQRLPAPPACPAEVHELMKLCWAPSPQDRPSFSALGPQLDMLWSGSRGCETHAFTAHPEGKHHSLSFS

[8] = biological target: T8, panel of 374 wild-type kinases (Homo sapiens, UniProt Q7KZI7); details: read-out: % Enzyme Activity (relative to DMSO controls), MARK2/PAR-1Ba
T8 construct: purchased Reaction Biology Corporation
T8 sequence (Q7KZI7 whole entry): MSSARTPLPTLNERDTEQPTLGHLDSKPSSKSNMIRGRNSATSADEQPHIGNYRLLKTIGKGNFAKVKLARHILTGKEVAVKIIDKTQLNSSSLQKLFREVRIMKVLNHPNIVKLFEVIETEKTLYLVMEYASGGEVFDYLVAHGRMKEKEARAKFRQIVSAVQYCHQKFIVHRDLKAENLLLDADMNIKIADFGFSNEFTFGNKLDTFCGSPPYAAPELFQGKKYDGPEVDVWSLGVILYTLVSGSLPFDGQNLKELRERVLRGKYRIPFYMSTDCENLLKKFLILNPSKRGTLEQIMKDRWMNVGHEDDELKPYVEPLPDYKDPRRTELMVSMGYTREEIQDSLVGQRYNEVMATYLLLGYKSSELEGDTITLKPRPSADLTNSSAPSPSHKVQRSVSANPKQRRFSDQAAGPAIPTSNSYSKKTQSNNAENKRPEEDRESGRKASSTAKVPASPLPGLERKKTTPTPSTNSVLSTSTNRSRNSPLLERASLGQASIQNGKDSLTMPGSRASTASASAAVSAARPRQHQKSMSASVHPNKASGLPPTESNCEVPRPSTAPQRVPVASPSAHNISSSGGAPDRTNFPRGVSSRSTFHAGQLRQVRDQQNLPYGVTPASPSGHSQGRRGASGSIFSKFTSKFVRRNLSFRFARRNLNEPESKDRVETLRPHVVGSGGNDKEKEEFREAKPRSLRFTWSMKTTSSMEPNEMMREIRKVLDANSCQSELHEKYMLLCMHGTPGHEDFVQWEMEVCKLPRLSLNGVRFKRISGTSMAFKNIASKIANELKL

[9] = read-out: % Enzyme Activity (relative to DMSO controls), CDK1/cyclin A
[10] = read-out: % Enzyme Activity (relative to DMSO controls), CDK1/cyclin B
[11] = read-out: % Enzyme Activity (relative to DMSO controls), CDK1/cyclin E

T1 sequence (Q15746 whole entry): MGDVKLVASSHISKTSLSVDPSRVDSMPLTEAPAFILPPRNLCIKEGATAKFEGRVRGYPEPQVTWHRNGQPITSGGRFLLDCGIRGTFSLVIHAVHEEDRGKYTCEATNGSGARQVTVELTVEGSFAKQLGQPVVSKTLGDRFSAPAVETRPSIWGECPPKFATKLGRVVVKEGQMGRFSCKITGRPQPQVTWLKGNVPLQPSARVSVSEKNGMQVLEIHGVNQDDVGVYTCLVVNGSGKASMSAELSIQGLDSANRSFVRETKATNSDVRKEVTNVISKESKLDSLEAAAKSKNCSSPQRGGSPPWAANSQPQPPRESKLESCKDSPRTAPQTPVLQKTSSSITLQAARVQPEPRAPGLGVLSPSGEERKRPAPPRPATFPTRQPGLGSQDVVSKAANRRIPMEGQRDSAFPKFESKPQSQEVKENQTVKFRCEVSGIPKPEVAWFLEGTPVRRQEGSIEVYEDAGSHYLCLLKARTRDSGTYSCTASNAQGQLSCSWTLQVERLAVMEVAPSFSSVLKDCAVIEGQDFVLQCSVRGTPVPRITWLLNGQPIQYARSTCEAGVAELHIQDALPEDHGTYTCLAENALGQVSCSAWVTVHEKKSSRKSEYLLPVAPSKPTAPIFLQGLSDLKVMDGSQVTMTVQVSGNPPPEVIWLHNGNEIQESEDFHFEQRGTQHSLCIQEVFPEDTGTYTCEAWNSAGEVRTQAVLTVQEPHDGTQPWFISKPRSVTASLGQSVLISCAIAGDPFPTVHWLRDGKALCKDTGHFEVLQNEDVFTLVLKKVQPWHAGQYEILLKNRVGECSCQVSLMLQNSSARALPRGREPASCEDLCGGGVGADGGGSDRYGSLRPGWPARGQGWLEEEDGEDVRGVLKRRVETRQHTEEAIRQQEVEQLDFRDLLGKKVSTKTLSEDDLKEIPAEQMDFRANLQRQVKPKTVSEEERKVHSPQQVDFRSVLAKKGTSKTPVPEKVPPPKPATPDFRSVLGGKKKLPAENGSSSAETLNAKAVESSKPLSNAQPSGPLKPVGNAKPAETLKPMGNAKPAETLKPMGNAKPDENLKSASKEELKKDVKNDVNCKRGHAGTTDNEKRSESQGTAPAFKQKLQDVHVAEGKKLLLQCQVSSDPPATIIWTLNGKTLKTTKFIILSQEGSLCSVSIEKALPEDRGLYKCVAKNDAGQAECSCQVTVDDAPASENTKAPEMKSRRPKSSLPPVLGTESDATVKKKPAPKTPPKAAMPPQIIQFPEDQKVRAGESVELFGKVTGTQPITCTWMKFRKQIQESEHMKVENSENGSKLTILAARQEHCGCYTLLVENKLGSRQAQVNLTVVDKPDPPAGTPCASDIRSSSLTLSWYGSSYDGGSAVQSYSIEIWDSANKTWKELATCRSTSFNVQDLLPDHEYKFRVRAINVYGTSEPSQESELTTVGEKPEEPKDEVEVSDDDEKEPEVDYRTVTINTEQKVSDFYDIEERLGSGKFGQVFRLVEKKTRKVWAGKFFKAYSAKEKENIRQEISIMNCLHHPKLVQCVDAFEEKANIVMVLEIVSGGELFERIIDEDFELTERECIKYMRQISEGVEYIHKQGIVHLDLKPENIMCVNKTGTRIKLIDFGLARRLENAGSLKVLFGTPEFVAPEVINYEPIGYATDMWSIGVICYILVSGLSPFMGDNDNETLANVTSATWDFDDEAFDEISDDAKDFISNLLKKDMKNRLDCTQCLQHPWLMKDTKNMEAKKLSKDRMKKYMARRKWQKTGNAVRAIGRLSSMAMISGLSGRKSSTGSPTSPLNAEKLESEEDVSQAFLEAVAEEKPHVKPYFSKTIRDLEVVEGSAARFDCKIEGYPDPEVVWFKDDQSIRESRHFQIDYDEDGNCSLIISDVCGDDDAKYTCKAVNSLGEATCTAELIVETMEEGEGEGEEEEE

What does the source list for `O=C(Nc1cnn(-c2csc(C(=O)NC3COC3)c2)c1)Nc1ccccc1Cl` [Compound 17, 4-(4-(3-(2-chlorophenyl)ureido)-1H-pyrazol-1-yl)-N-(oxetan-3-yl)thiophene-2-carboxamide]?
remaining activity at 5 µM [1]: 97.5%; remaining activity at 5 µM [2]: 104%; remaining activity at 5 µM [3, 9]: 95.5%; remaining activity at 5 µM [3, 10]: 92.6%; remaining activity at 5 µM [3, 11]: 94.7%; remaining activity at 5 µM [4]: 99.2%; remaining activity at 5 µM [5]: 110%; remaining activity at 5 µM [6]: 106%; remaining activity at 5 µM [7]: 102%; remaining activity at 5 µM [8]: 104%

Which results are given for `Cc1sc(C(=O)NC2COC2)cc1-n1cc(NC(=O)Nc2c(F)cccc2Cl)cn1` [Compound 27, 4-(4-(3-(2-chloro-6-fluorophenyl)ureido)-1H-pyrazol-1-yl)-5-methyl-N-(oxetan-3-yl)thiophene-2-carboxamide]?
remaining activity at 10 µM ([1]; 10 uM): 103%; remaining activity at 10 µM ([2]; 10 uM): 88.5%; remaining activity at 10 µM [3, 9]: 105%; remaining activity at 10 µM [3, 10]: 92.7%; remaining activity at 10 µM [3, 11]: 100%; remaining activity at 10 µM ([4]; 10 uM): 98%; remaining activity at 10 µM ([5]; 10 uM): 116%; remaining activity at 10 µM ([6]; 10 uM): 102%; remaining activity at 10 µM ([7]; 10 uM): 96.7%; remaining activity at 10 µM ([8]; 10 uM): 99.8%

For `O=C(Nc1cnn(-c2csc(C(=O)NC3COC3)c2)c1)Nc1c(F)cccc1Cl` [Compound 25, 4-(4-(3-(2-chloro-6-fluorophenyl)ureido)-1H-pyrazol-1-yl)-N-(oxetan-3-yl)thiophene-2-carboxamide], which remaining activity at 5 µM [1] is on record?
The remaining activity at 5 µM was 95.9%.

And the remaining activity at 5 µM [2]?
Its remaining activity at 5 µM is 90.3%.

And the remaining activity at 5 µM [3, 9]?
Its remaining activity at 5 µM is 86.3%.

And the remaining activity at 5 µM [3, 10]?
The remaining activity at 5 µM was 105%.

What about the remaining activity at 5 µM [3, 11] of the same compound?
The remaining activity at 5 µM was 98.4%.

What about the remaining activity at 5 µM [4] of the same compound?
The remaining activity at 5 µM was 97.5%.

And the remaining activity at 5 µM [5]?
The remaining activity at 5 µM was 96.8%.

What about the remaining activity at 5 µM [6] of the same compound?
The remaining activity at 5 µM was 96%.

What about the remaining activity at 5 µM [7] of the same compound?
Its remaining activity at 5 µM is 98.7%.

And the remaining activity at 5 µM [8]?
Its remaining activity at 5 µM is 90.7%.
